Among the data in patent US6949542B2, “Dihydro-benzo[b][1,4]diazepin-2-one derivatives” (Hoffman-La Roche Inc., priority 2002, dated 2005) are melting point values, retold here.

By melting point is commonly meant the temperature of the solid-liquid transition. In turn, `CN(C)c1cc2c(cc1C(F)(F)F)NC(=O)CC(c1cccc(-c3ccccn3)c1)=N2` [Example 6, 7-Dimethylamino-4-(3-pyridin-2-yl-phenyl)-8-trifluoromethyl-1,3-dihydro-benzo[b][1,4]diazepin-2-one] displayed a melting point of 201 °C. The molecule `O=C1CC(c2cccc(-c3cccnc3)c2)=Nc2ccc(F)cc2N1` [Example 7, 8-Fluoro-4-(3-pyridin-3-yl-phenyl)-1,3-dihydro-benzo[b][1,4]diazepin-2-one] came in with a melting point of 210 °C. For `O=C1CC(c2cccc(-c3ccncc3)c2)=Nc2ccc(F)cc2N1` [Example 8, 8-Fluoro-4-(3-pyridin-4-yl-phenyl)-1,3-dihydro-benzo[b][1,4]diazepin-2-one], the melting point is 190 to 192 °C. The value for `Cc1ccc(-c2cccc(C3=Nc4cc(N(C)C)c(C(F)(F)F)cc4NC(=O)C3)c2)cn1` [Example 10, 7-Dimethylamino-4-[3-(6-methyl-pyridin-3-yl)-phenyl]-8-trifluoromethyl-1,3-dihydro-benzo[b][1,4]diazepin-2-one] was 233 to 237 °C; that for `Cc1ccc(-c2cccc(C3=Nc4ccc(F)cc4NC(=O)C3)c2)cn1` [Example 11, 8-Fluoro-4-[3-(6-methyl-pyridin-3-yl)-phenyl]-1,3-dihydro-benzo[b][1,4]diazepin-2-one] was 225 to 226 °C; that for `Cc1ccc(-c2cccc(C3=Nc4ccc(C(F)(F)F)cc4NC(=O)C3)c2)nn1` [Example 14, 4-[3-(6-Methyl-pyridazin-3-yl)-phenyl]-8-trifluoromethyl-1,3-dihydro-benzo[b][1,4]diazepin-2-one] was 233 °C. The value for `Cc1ccc(-c2cccc(C3=Nc4cc(N(C)C)c(C(F)(F)F)cc4NC(=O)C3)c2)nn1` [Example 15, 7-Dimethylamino-4-[3-(6-methyl-pyridazin-3-yl)-phenyl]-8-trifluoromethyl-1,3-dihydro-benzo[b][1,4]diazepin-2-one] was 174 °C; that for `Cc1ncccc1-c1cccc(C2=Nc3ccc(C(F)(F)F)cc3NC(=O)C2)c1` [Example 17, 4-[3-(2-Methyl-pyridin-3-yl)-phenyl]-8-trifluoromethyl-1,3-dihydro-benzo[b][1,4]diazepin-2-one] was 219 to 220 °C. To `Cc1ncccc1-c1cccc(C2=Nc3ccc(F)cc3NC(=O)C2)c1` [Example 18, 8-Fluoro-4-[3-(2-methyl-pyridin-3-yl)-phenyl]-1,3-dihydro-benzo[b][1,4]diazepin-2-one] belongs 219 to 220 °C; to `Cc1ncccc1-c1cccc(C2=Nc3ccc(-c4ccccc4F)cc3NC(=O)C2)c1` [Example 19, 8-(2-Fluoro-phenyl)-4-[3-(2-methyl-pyridin-3-yl)-phenyl]-1,3-dihydro-benzo[b][1,4]diazepin-2-one], 192 to 194 °C. Molecule `Cc1ccc(-c2cccc(C3=Nc4cc(F)c(Cl)cc4NC(=O)C3)c2)cn1` [Example 23, 8-Chloro-7-fluoro-4-[3-(6-methyl-pyridin-3-yl)-phenyl]-1,3-dihydro-benzo[b][1,4]diazepin-2-one] returned a melting point of 215 to 220 °C. Molecule `Cc1cc2c(cc1Cl)NC(=O)CC(c1cccc(-c3cccnc3)c1)=N2` [Example 26, 8-Chloro-7-methyl-4-(3-pyridin-3-yl-phenyl)-1,3-dihydro-benzo[b][1,4]diazepin-2-one] came in with a melting point of 229 °C.

Turning to `O=C1CC(c2cccc(-c3cccnc3)c2)=Nc2ccc(-c3ccccc3F)cc2N1` [Example 29, 8-(2-Fluoro-phenyl)-4-(3-pyridin-3-yl-phenyl)-1,3-dihydro-benzo[b][1,4]diazepin-2-one], the melting point lay within 208 to 209 °C.

For the molecule `Cc1ccc(-c2cccc(C3=Nc4ccc(Cl)cc4NC(=O)C3)c2)cn1` [Example 31, 8-Chloro-4-[3-(6-methyl-pyridin-3-yl)-phenyl]-1,3-dihydro-benzo[b][1,4]diazepin-2-one], the melting point was 230 °C. The molecule `Cc1ncccc1-c1cccc(C2=Nc3ccc(Cl)cc3NC(=O)C2)c1` [Example 32, 8-Chloro-4-[3-(2-methyl-pyridin-3-yl)-phenyl]-1,3-dihydro-benzo[b][1,4]diazepin-2-one] gave a melting point of 198 °C. `O=C1CC(c2cccc(-c3ccccn3)c2)=Nc2ccc(C(F)(F)F)cc2N1` [Example 33, 4-(3-Pyridin-2-yl-phenyl)-8-trifluoromethyl-1,3-dihydro-benzo[b][1,4]diazepin-2-one]: the melting point fell in the range of 226 to 227 °C. Consider `O=C1CC(c2cccc(-c3cccnc3)c2)=Nc2ccccc2N1` [Example 34, 4-(3-Pyridin-3-yl-phenyl)-1,3-dihydro-benzo[b][1,4]diazepin-2-one], for which the melting point is 210 to 211 °C. On to `COc1cc2c(cc1C(F)(F)F)NC(=O)CC(c1cccc(-c3ccncc3)c1)=N2` [Example 35, 7-Methoxy-4-(3-pyridin-4-yl-phenyl)-8-trifluoromethyl-1,3-dihydro-benzo[b][1,4]diazepin-2-one], for which the melting point is 225 °C (dec.). To `COc1ccc2c(c1)NC(=O)CC(c1cccc(-c3ccncc3)c1)=N2` [Example 38, 8-Methoxy-4-(3-pyridin-4-yl-phenyl)-1,3-dihydro-benzo[b][1,4]diazepin-2-one] belongs 193 to 196 °C; to `CN(C)c1cc2c(cc1-c1ccccc1F)NC(=O)CC(c1cccc(-c3ccncc3)c1)=N2` [Example 39, 7-Dimethylamino-8-(2-fluoro-phenyl)-4-(3-pyridin-4-yl-phenyl)-1,3-dihydro-benzo[b][1,4]diazepin-2-one], 236 to 237 °C. For the molecule `COc1ccc(-c2cccc(C3=Nc4cc(N(C)C)c(C(F)(F)F)cc4NC(=O)C3)c2)nn1` [Example 40, 7-Dimethylamino-4-[3-(6-methoxy-pyridazin-3-yl)-phenyl]-8-trifluoromethyl-1,3-dihydro-benzo[b][1,4]diazepin-2-one], the melting point is 224 °C. With `CCOc1cc2c(cc1C(F)(F)F)NC(=O)CC(c1cccc(-c3ccccn3)c1)=N2` [Example 43, 7-Ethoxy-4-(3-pyridin-2-yl-phenyl)-8-trifluoromethyl-1,3-dihydro-benzo[b][1,4]diazepin-2-one], the melting point stood at 229 °C. Consider `O=C1CC(c2cccc(-c3ccccn3)c2)=Nc2cc(OCC(F)(F)F)c(C(F)(F)F)cc2N1` [Example 44, 4-(3-Pyridin-2-yl-phenyl)-7-(2,2,2-trifluoro-ethoxy)-8-trifluoromethyl-1,3-dihydro-benzo[b][1,4]diazepin-2-one], for which the melting point was 214 °C. As for `Cc1cc2c(cc1Cl)NC(=O)CC(c1cccc(-c3ccccn3)c1)=N2` [Example 45, 8-Chloro-7-methyl-4-(3-pyridin-2-yl-phenyl)-1,3-dihydro-benzo[b][1,4]diazepin-2-one], the melting point is 222 °C (dec.). In turn, `Cc1cc2c(cc1C(F)(F)F)NC(=O)CC(c1cccc(-c3ccccn3)c1)=N2` [Example 46, 7-Methyl-4-(3-pyridin-2-yl-phenyl)-8-trifluoromethyl-1,3-dihydro-benzo[b][1,4]diazepin-2-one] gave a melting point of 251 to 253 °C. As to `Cc1cc2c(cc1C(F)(F)F)NC(=O)CC(c1cccc(-c3ccnnc3)c1)=N2` [Example 49, 7-Methyl-4-(3-pyridazin-4-yl-phenyl)-8-trifluoromethyl-1,3-dihydro-benzo[b][1,4]diazepin-2-one], the melting point came out at 223 °C. For the molecule `COc1ccc(-c2cccc(C3=Nc4ccc(C(F)(F)F)cc4NC(=O)C3)c2)cn1` [Example 50, 4-[3-(6-Methoxy-pyridin-3-yl)-phenyl]-8-trifluoromethyl-1,3-dihydro-benzo[b][1,4]diazepin-2-one], the melting point was in the range of 210 to 215 °C. The value for `COc1ccc(-c2cccc(C3=Nc4ccc(Cl)cc4NC(=O)C3)c2)cn1` [Example 51, 8-Chloro-4-[3-(6-methoxy-pyridin-3-yl)-phenyl]-1,3-dihydro-benzo[b][1,4]diazepin-2-one] was 200 to 205 °C.

`O=C1CC(c2cccc(-c3ccccn3)c2)=Nc2cc(F)c(Cl)cc2N1` [Example 52, 8-Chloro-7-fluoro-4-(3-pyridin-2-yl-phenyl)-1,3-dihydro-benzo[b][1,4]diazepin-2-one] yielded a melting point of 197 to 198 °C.

`COc1ccc2c(c1)N=C(c1cccc(-c3cccnc3)c1)CC(=O)N2` [Example 55, 7-Methoxy-4-(3-pyridin-3-yl-phenyl)-1,3-dihydro-benzo[b][1,4]diazepin-2-one]: the melting point is 219 °C (dec.).

The molecule `CCOc1ccc2c(c1)N=C(c1cccc(-c3ccnc(C)c3)c1)CC(=O)N2` [Example 59, 7-Ethoxy-4-[3-(2-methyl-pyridin-4-yl)-phenyl]-1,3-dihydro-benzo[b][1,4]diazepin-2-one] registered a melting point of 163 °C. In turn, `CCOc1ccc2c(c1)N=C(c1cccc(-c3ccc(C)nc3)c1)CC(=O)N2` [Example 60, 7-Ethoxy-4-[3-(6-methyl-pyridin-3-yl)-phenyl]-1,3-dihydro-benzo[b][1,4]diazepin-2-one] had a melting point of 173 °C. The value for `CN(c1cc2c(cc1C(F)(F)F)NC(=O)CC(c1cccc(-c3cccnc3)c1)=N2)C1CC1` [Example 62, 7-(Cyclopropyl-methyl-amino)-4-(3-pyridin-3-yl-phenyl)-8-trifluoromethyl-1,3-dihydro-benzo[b][1,4]diazepin-2-one] was 196 to 198 °C. Regarding `Cc1cc2c(cc1C(F)(F)F)N=C(c1cccc(-c3ccncc3)c1)CC(=O)N2` [Example 64, 8-Methyl-4-(3-pyridin-4-yl-phenyl)-7-trifluoromethyl-1,3-dihydro-benzo[b][1,4]diazepin-2-one], the melting point came out at 217 °C. The value for `Cc1cc2c(cc1Cl)N=C(c1cccc(-c3ccncc3)c1)CC(=O)N2` [Example 66, 7-Chloro-8-methyl-4-(3-pyridin-4-yl-phenyl)-1,3-dihydro-benzo[b][1,4]diazepin-2-one] was 236 °C. In turn, `Cc1cc2c(cc1C)NC(=O)CC(c1cccc(-c3ccncc3)c1)=N2` [Example 69, 7,8-Dimethyl-4-(3-pyridin-4-yl-phenyl)-1,3-dihydro-benzo[b][1,4]diazepin-2-one] registered a melting point of 231 °C.
